Source: patent US20210340629A1, “BIOMARKERS FOR CANCER THERAPY” (The Council of the Queensland Institute of Medical Research, priority 2018, published 2021)

Experiments:
PARP = PARP cleavage as a measure of apoptosis; assay type: cell-based, human; conditions: any cell line treated, data not shown
Excerpt: Having established that G9a inhibition is effective in inducing death of melanoma cells in vitro, the molecular basis for this effect was then investigated. First, cells treated with UNC0642 were examined for its effect on the cleavage of PARP as a measure of apoptosis.

MAP1LC3B promoter = assay: Chromatin immunoprecipitation (ChIP) on the MAP1LC3B promoter; assay type: cell-based, human; conditions: D05 cells, 5 μM, 24 h, FIG. 9
Description: In order to ascertain whether the inhibition of G9a directly impacts MAP1LC3B expression, chromatin immunoprecipitation (ChIP) was performed on the MAP1LC3B promoter. Changes in histone H3K9 dimethylation (H3K9me2) and acetylation (H3K9Ac), as well as the recruitment of RNA Pol II, were compared between vehicle or UNC0642 treated cells (FIG. 9). Consistent with the increase in gene expression observed in FIG. 8, there was a greater than 4-fold reduction in H3K9me2 concomitant with an increase in RNA Pol II recruitment at the MAP1LC3B promoter following UNC0642 treatment.
Quantitative RT-PCR and ChIP assays were conducted as previously described (Lee et al. (2010) Mol Cell 39, 71-85). Briefly, total RNA was isolated from either the tumor cells or from xenografts using Trizol (Invitrogen) and reverse transcription was performed from 2 μg of total RNA using the Superscript III cDNA synthesis system (Invitrogen). The abundance of mRNA was detected by an ABI VIIA7 system with SYBR Green Master Mix (Life Technologies). Primer pairs were designed to amplify 90-150 bp mRNA specific fragments and were confirmed as unique products by melting curve analysis. The quantity of mRNA was calculated using the ΔΔCt method and normalized to HPRT. All reactions were performed in triplicates.

[1] = tested on: PD-L1 and PD-1 in CD8+ T cells; assay: Flow cytometry analysis of tumor infiltrating lymphocytes from AT3 tumors; assay type: in vivo, C57BL/6 mice; conditions: TILs from AT3 tumors, UNC0642 25 mg/kg every 2 days for 14 days, FIG. 18
Excerpt: C57BL/6 mice were purchased from the ARC Animal Resources Centre and used between the ages of 6 and 16 weeks. Groups of 3 to 8 mice per experiment were used for experimental assays, to ensure adequate power to detect biological differences. All experiments were approved by the QIMR Berghofer Medical Research Institute Animal Ethics Committee.
The C57BL/6 AT3 mammary adenocarcinoma (obtained from Dr. Trina Stewart in 2009, Peter MacCallum Cancer Centre, Melbourne, Australia) were maintained as previously described (Casciello et al PNAS 2017). The AT3 cell line was tested negative for mycoplasma. For in vivo experiments, 1×10^5 cells were subcutaneously injected into mice in a 100 μL volume.
AT3 tumor growth was measured using a digital caliper, and tumor volumes were presented as mean±SEM. For flow cytometry analyses of intratumor immune cells, mice bearing established AT3 tumor (days 14-19) were treated with the indicated antibodies or reagents and immune cells were isolated 48 to 72 hours post treatment.
Tumors tissues were harvested from mice that had been treated with mAb or otherwise and processed for flow cytometry analysis. […]

## COc1cc2c(NC3CCN(C(C)C)CC3)nc(N3CCC(F)(F)CC3)nc2cc1OCCCN1CCCC1 [UNC0642]
PARP
  PARP cleavage: No observable PARP cleavage
MAP1LC3B promoter
  RNA Pol II recruitment at the MAP1LC3B promoter: increase
  reduction in H3K9me2 at the MAP1LC3B promoter: greater than 4 fold
[1]
  PD-L1 and PD-1 in CD8+ T cells: down-regulation
